Reference: ChEMBL document CHEMBL4419121, “Tetrahydropyridopyrazines modulators of gpr6” (2018)

The compounds below were run against T1, G-protein coupled receptor 6 (Homo sapiens, UniProt P46095) (assay: Modulation activity at GPR6 receptor (unknown origin) expressed in CHO-K1 cells assessed as inhibition of constitutive cAMP activity incubated for 45 mins by Perkin Elmer Lance HTRF Ultrac-AMP assay). Details: not given.
T1 sequence (P46095 whole entry): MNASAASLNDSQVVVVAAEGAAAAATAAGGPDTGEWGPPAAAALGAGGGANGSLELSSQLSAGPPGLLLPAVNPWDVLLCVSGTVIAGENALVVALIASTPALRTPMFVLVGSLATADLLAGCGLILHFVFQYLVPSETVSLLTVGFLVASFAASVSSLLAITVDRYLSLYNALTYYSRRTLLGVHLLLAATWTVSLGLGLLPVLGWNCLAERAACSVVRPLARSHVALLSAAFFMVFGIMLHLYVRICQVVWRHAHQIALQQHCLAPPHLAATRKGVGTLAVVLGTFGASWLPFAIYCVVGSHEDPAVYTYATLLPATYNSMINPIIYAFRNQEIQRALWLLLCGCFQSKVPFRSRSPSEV
Assay type: functional, cell-based
`CC(C)Nc1nc2c(nc1N1CCC(Oc3ccc(F)cc3F)CC1)CCN(C(=O)N1CCCC1)C2` showed an IC50 of 391 nM.
For `CC(C)Nc1nc2c(nc1N1CCC(Oc3ccc(F)cc3F)CC1)C(C)N(C(=O)C1CC1)CC2` (configuration not stated), the IC50 was 259 nM.
Work on `CS(=O)(=O)N1CCc2nc(N3CCC(Oc4ccc(F)cc4F)CC3)c(NCC(F)F)nc2C1` yielded an IC50 of 57.2 nM.
`CC(C)Nc1nc2c(nc1N1CCC(C(=O)c3cc(Cl)ccc3F)CC1)CCN(C(=O)N(C)C)C2` was tested, and the IC50 was 32.7 nM.
In the case of `CN1CCc2nc(NC3CC3)c(N3CCC(C(F)c4ccc(F)cc4F)CC3)nc2C1` (configuration not stated), the IC50 is reported as 9.4 nM.
`CO[C@H](C)C(=O)N1CCc2nc(N3CCC(Oc4ccc(F)cc4F)CC3)c(NCC(F)F)nc2C1` showed an IC50 of 64 nM.
With `CC(=O)N1CCc2nc(N3CCC(C(F)c4ccc(F)cc4F)CC3)c(NC(C)C)nc2C1` (configuration not stated) the IC50 was 13.4 nM.
`CC(C)Nc1nc2c(nc1N1CCC(Oc3ccc(C#N)cc3F)CC1)CN(C(=O)C1CC1)CC2` showed an IC50 of 122 nM.
`COCC(=O)N1CCc2nc(NCC(F)F)c(N3CCC(Oc4ccc(F)cc4F)CC3)nc2C1C` (configuration not stated) was tested, and the IC50 was 68 nM.
Compound `COc1ccc(OC2CCN(c3nc4c(nc3NC3CCC3)CN(C(=O)N(C)C)CC4)CC2)c(F)c1` has an IC50 of 32.5 nM.
`CN1CCc2nc(NC3CC3)c(N3CCC([C@H](F)c4ccc(F)cc4F)CC3)nc2C1` was tested, and the IC50 was 15.2 nM.
For `CC(=O)N1CCc2nc(NCC(F)F)c(N3CCC(Oc4ccc(F)cc4F)CC3)nc2C1C` (configuration not stated), the IC50 was 76 nM.
Compound `CO[C@@H](C)C(=O)N1CCc2nc(N3CCC(Oc4ccc(F)cc4F)CC3)c(NCC(F)F)nc2C1` has an IC50 of 111 nM.
Compound `COc1ccc(OC2CCN(c3nc4c(nc3NC3CC3)CCN(C)C4)CC2)c(F)c1` has an IC50 of 145 nM.
`CC(C)Nc1nc2c(nc1N1CCC(Oc3ccc(F)cc3F)CC1)CCN(C(=O)c1ccno1)C2` was tested, and the IC50 was 38.7 nM.
In the case of `COCC(=O)N1CCc2nc(NC(C)C)c(N3CCC(Oc4ccc(F)cc4F)CC3)nc2C1C` (configuration not stated), the IC50 is reported as 91 nM.
`CC1c2nc(NCC(F)F)c(N3CCC(Oc4ccc(F)cc4F)CC3)nc2CCN1S(C)(=O)=O` (configuration not stated) gave an IC50 of 87 nM.
With `CC(C)Nc1nc2c(nc1N1CCC(Oc3ccc(F)cc3F)CC1)CCN(C(=O)C1CCCO1)C2` (configuration not stated) the IC50 was 17.9 nM.
Compound `CC(=O)N1CCc2nc(NC(C)C)c(N3CCC(C(=O)c4cc(Cl)ccc4F)CC3)nc2C1` has an IC50 of 9.8 nM.
Work on `CN(C)C(=O)N1CCc2nc(NCC(F)F)c(N3CCC(Oc4ccc(F)cc4F)CC3)nc2C1` yielded an IC50 of 9.1 nM.
With `CC(C)Nc1nc2c(nc1N1CCC(C(F)c3ccc(F)cc3F)CC1)CN(C(=O)N(C)C)CC2` (configuration not stated) the IC50 was 23.7 nM.
For `CC1Cc2nc(NCC(F)F)c(N3CCC(Oc4ccc(F)cc4F)CC3)nc2CN1C(=O)C1CC1` (configuration not stated), the IC50 was 23.9 nM.
`CC(=O)N1CCc2nc(NC(C)C)c(N3CCC(Oc4ccc(F)cc4F)CC3)nc2C1C` (configuration not stated) showed an IC50 of 88 nM.
Work on `COc1ccc(OC2CCN(c3nc4c(nc3NC3CCC3)CCN(C(=O)N(C)C)C4)CC2)c(F)c1` yielded an IC50 of 13.8 nM.
`CC1c2nc(NCC(F)F)c(N3CCC(Oc4ccc(F)cc4F)CC3)nc2CCN1C(=O)C1CC1` (configuration not stated) showed an IC50 of 85 nM.
Work on `CC(C)Nc1nc2c(nc1N1CCC(Oc3ccc(F)cc3F)CC1)CCN(C(=O)N(C)C)C2` yielded an IC50 of 10.4 nM.
For `CO[C@H](C)C(=O)N1Cc2nc(N3CCC(Oc4ccc(F)cc4F)CC3)c(NCC(F)F)nc2CC1C` (some centres not stated), the IC50 was 18.5 nM.
For `CC1Cc2nc(NCC(F)F)c(N3CCC(Oc4ccc(F)cc4F)CC3)nc2CN1C` (configuration not stated), the IC50 was 23.2 nM.
Work on `CN(C)C(=O)N1CCc2nc(N3CCC(Oc4ccc(F)cc4F)CC3)c(NCC(F)F)nc2C1` yielded an IC50 of 26.9 nM.
With `CC(C)Nc1nc2c(nc1N1CCC(Oc3ccc(F)cc3F)CC1)CN(C(=O)C1CCCO1)CC2` (configuration not stated) the IC50 was 19.5 nM.
`CC1c2nc(N3CCC(Oc4ccc(F)cc4F)CC3)c(NCC(F)F)nc2CCN1C(=O)C1CC1` (configuration not stated) was tested, and the IC50 was 126 nM.
Compound `CC(=O)N1CCc2nc(NCC(F)F)c(N3CCC(Oc4ccc(F)cc4F)CC3)nc2C1` has an IC50 of 11.5 nM.
Work on `CC(C)Nc1nc2c(nc1N1CCC(Oc3ccc(F)cc3F)CC1)C(C)N(S(C)(=O)=O)CC2` (configuration not stated) yielded an IC50 of 98 nM.
Compound `CC1Cc2nc(NCC(F)F)c(N3CCC(Oc4ccc(F)cc4F)CC3)nc2CN1S(C)(=O)=O` (configuration not stated) has an IC50 of 10.4 nM.
`COCCNC(=O)N1CCc2nc(NC(C)C)c(N3CCC(Oc4ccc(F)cc4F)CC3)nc2C1` gave an IC50 of 14.9 nM.
Compound `O=C(C(F)F)N1CCc2nc(N3CCC(Oc4ccc(F)cc4F)CC3)c(NCC(F)F)nc2C1` has an IC50 of 78.8 nM.
Compound `COCC(=O)N1CCc2nc(NC(C)C)c(N3CCC(Oc4ccc(F)cc4F)CC3)nc2C1` has an IC50 of 17.3 nM.
`CN1CCc2nc(NC3CC3)c(N3CCC([C@@H](F)c4ccc(F)cc4F)CC3)nc2C1` showed an IC50 of 26.5 nM.
For `COc1ccc(OC2CCN(c3nc4c(nc3NC(C)C)CCN(C(=O)N(C)C)C4)CC2)c(F)c1`, the IC50 was 16.6 nM.
Compound `CC1Cc2nc(NCC(F)F)c(N3CCC(Oc4ccc(F)cc4F)CC3)nc2CN1C(=O)C(F)F` (configuration not stated) has an IC50 of 22.1 nM.
In the case of `COCCNC(=O)N1CCc2nc(N3CCC(Oc4ccc(F)cc4F)CC3)c(NC(C)C)nc2C1`, the IC50 is reported as 29.8 nM.
`CC(C)Nc1nc2c(nc1N1CCC(C(=O)c3cc(Cl)ccc3F)CC1)CN(C)CC2` showed an IC50 of 8.8 nM.
`COc1ccc(OC2CCN(c3nc4c(nc3NC3CCC3)CCN(C(C)=O)C4)CC2)c(F)c1` was tested, and the IC50 was 12 nM.
With `CC(=O)N1CCc2nc(NC(C)C)c(N3CCC(Oc4ccc(F)cc4F)CC3)nc2C1` the IC50 was 9.5 nM.

The compounds below were run on Rattus norvegicus (assay: Reversal of haloperidol-induced catalepsy in Sprague-Dawley rat model of Parkinson's disease assessed as reduction in catalepsy intensity index at 0.1 mg/kg, ip dosed along with haloperidol and measured after 30 mins relative to untreated control). Details: not given.
Assay type: functional
Set-up: scale not given: the % may be the effect or the level left
In the case of `CC(=O)N1CCc2nc(N3CCC(Oc4ccc(F)cc4F)CC3)c(NC(C)C)nc2C1`, the Activity is reported as -5.7%.

The compounds below were run against T1, G-protein coupled receptor 6 (assay: Modulation activity at GPR6 receptor (unknown origin) expressed in CHO-K1 cells assessed as inhibition of constitutive cAMP activity incubated for 45 mins in presence of 300 uM IBMX by Perkin Elmer Lance HTRF Ultrac-AMP assay). Details: cho-k1.
Assay type: functional, cell-based
In the case of `CC(=O)N1CCc2nc(N3CCC(Oc4ccc(F)cc4F)CC3)c(NC(C)C)nc2C1`, the IC50 is reported as 24.6 nM.
`CC(=O)N1CCc2nc(NC(C)C)c(N3CCC(Oc4ccc(F)cc4F)CC3)nc2C1` gave an IC50 of 73.7 nM.
